In patent US20160206688A1, “METHODS FOR TREATING BACTEREMIA AND OSTEOMYELITIS USING ORITAVANCIN” (THE MEDICINES COMPANY, priority 2013, published 2016):
≈ marks a conversion by molar mass, not a printed value. Like-named read-outs stand apart in the source and are kept apart here.

Tests used:
[1] = Tolerability and laboratory findings in compassionate use subject; format: in vivo, human
Experimental: In response to a compassionate use request, oritavancin was administered to a subject having bacteremia.
The demographics of the subject included the following: […]; […]; […]; weight—190 lb; height—70 inches. The subject's medical history included the following: CAD s/p CABG 8/08 (SVG to OM1, SVG to PDA); severe AS s/p bioprosthetic AVR 8/08; lumbar discectomy and fusion February 2011, hardware removed Jan. 11, 2013; PVD S/p bilateral CEA 2010; CKD s/p renal artery stenting December 2011, Baseline Cr approx 3.0 s; HTN; CHF; HLD; mild pulmonary fibrosis; BPH; GERD; arthritis.
Treatment as of Feb. 8, 2013: oritavancin (1200 mg IV, Q2D×3 times, then QW×5 times).

E. faecium = assay: Broth microdilution MIC, European bacteraemia isolates 2010-2012; format: cell-based, Enterococcus faecium
How it was run: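 Bacteraemia isolates from European, Israeli, Russian, Turkish and Ukrainian hospitals (2010-2012) tested centrally by CLSI M07-A9 broth microdilution in cation-adjusted Mueller-Hinton broth with 0.002% polysorbate-80. QC strains E. faecalis ATCC 29212 and S. aureus ATCC 29213; interpretation per CLSI M100-S23 and EUCAST 2013.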

[2] = test system: staphylococcal clinical isolates; assay: as above; format: cell-based, staphylococci
Experimental: A total of 2,904 clinical strains responsible for documented bacteremia among unique hospitalized patients in 38 hospitals in 11 European Union countries. Israel, Russia, Turkey and Ukraine were included in this study (2010-2012). Isolates were submitted to a central monitoring laboratory (JMI Laboratories, North Liberty. Iowa. USA), following previously established protocols. Bacterial species identification was performed by using an automated system (Vitek®2; bioMèrieux, Hazelwood, Mo., USA) or conventional biochemical algorithms, as required.
Isolates were tested for susceptibility by broth microdilution methods following the Clinical and Laboratory Standards Institute (CLSI; M07-A9, 2012) document. Susceptibility testing was performed in cation-adjusted Mueller-Hinton broth (CA-MHB) using dry-form panels manufactured by Thermo Fisher Scientific, formerly TREK Diagnostics Systems/Sensititre (Cleveland. Ohio, USA). These panels provide results equivalent to the CLSI-approved broth microdilution method supplemented with 0.002% polysorbate-80.
Quality assurance was performed by concurrent testing of CLSI-recommended (M100-S23, 2013) strains: E. faecalis ATCC 29212 and S. aureus ATCC 29213. Interpretation of comparator MIC results was in accordance with published CLSI (M100-S23) and European Committee on Antimicrobial Susceptibility Testing (EUCAST, 2013) criteria.

[3] = E. faecium (315), at ≦0.008 mg/L
[4] = E. faecium, VanA-phenotype (53), at ≦0.008 mg/L
[5] = E. faecium, Vancomycin-susceptible (257), at ≦0.008 mg/L
[6] = Enterococcus faecium, Table 1, E. faecium (315)
[7] = Enterococcus faecium, Table 1, E. faecium, VanA-phenotype (53)
[8] = Enterococcus faecium, Table 1, E. faecium, Vancomycin-susceptible (257)
[9] = Enterococcus faecium, Table 2, E. faecium Vancomycin-resistant (VanA-phenotype) (153)
[10] = Enterococcus faecium, Table 2, E. faecium Vancomycin-susceptible (257)
[11] = collection of staphylococcal clinical isolates, regardless of the methicillin susceptibility pattern

In the case of `CN[C@H](CC(C)C)C(=O)N[C@H]1C(=O)N[C@@H](CC(N)=O)C(=O)N[C@H]2C(=O)N[C@H]3C(=O)N[C@H](C(=O)N[C@H](C(=O)O)c4cc(O)cc(O)c4-c4cc3ccc4O)[C@H](O[C@H]3C[C@](C)(N)[C@@H](O)[C@H](C)O3)c3ccc(c(Cl)c3)Oc3cc2cc(c3O[C@@H]2O[C@H](CO)[C@@H](O)[C@H](O)[C@H]2O[C@H]2C[C@](C)(NCc3ccc(-c4ccc(Cl)cc4)cc3)[C@@H](O)[C@H](C)O2)Oc2ccc(cc2Cl)[C@H]1O` [Oritavancin, N-(4-(4-chlorophenyl)benzyl)A82846B], the creatinine ([1]; last post-dose, reported Feb. 11, 2013, pre-treatment levels 2.8 to 3) is reported as 3.1, the tolerability ([1]; reported Feb. 20, 2013) is reported as “tolerating oritavancin well without the adverse events from their previous antibiotics” and the creatinine ([1]; reported Feb. 20, 2013, went down from 3.1) is reported as 1.6. The “Number inhibited at MIC” value (E. faecium; E. faecium (315), at 0.015 mg/L) was 25, the “Number inhibited at MIC” value (E. faecium; E. faecium (315), at 0.03 mg/L) was 12 and the “Number inhibited at MIC” value (E. faecium; E. faecium (315), at 0.06 mg/L) was 6. For the same compound, the “Number inhibited at MIC” value (E. faecium; E. faecium (315), at 0.12 mg/L) was 3, the “Number inhibited at MIC” value (E. faecium; [3]) was 269 and the “cumulative % inhibited at MIC” value (E. faecium; [3]) was 85.4%. For the same compound, the “Number inhibited at MIC” value (E. faecium; E. faecium, VanA-phenotype (53), at 0.015 mg/L) was 19, the “Number inhibited at MIC” value (E. faecium; E. faecium, VanA-phenotype (53), at 0.03 mg/L) was 12 and the “Number inhibited at MIC” value (E. faecium; E. faecium, VanA-phenotype (53), at 0.06 mg/L) was 6. The “Number inhibited at MIC” value (E. faecium; E. faecium, VanA-phenotype (53), at 0.12 mg/L) was 3, the “Number inhibited at MIC” value (E. faecium; [4]) was 13 and the “cumulative % inhibited at MIC” value (E. faecium; [4]) was 24.5%. For the same compound, the “Number inhibited at MIC” value (E. faecium; E. faecium, Vancomycin-susceptible (257), at 0.015 mg/L) was 6, the “Number inhibited at MIC” value (E. faecium; [5]) was 251 and the “cumulative % inhibited at MIC” value (E. faecium; [5]) was 97.7%. The MIC50 (E. faecium; [6]) was ≤ 0.008 µg/mL, the MIC90 (E. faecium; [6]) was 0.015 µg/mL (≈ 8.37 nM) and the MIC50 (E. faecium; [7]) was 0.015 µg/mL (≈ 8.37 nM). For the same compound, the MIC90 (E. faecium; [7]) was 0.06 µg/mL (≈ 33.5 nM), the MIC50 (E. faecium; [8]) was ≤ 0.008 µg/mL and the MIC90 (E. faecium; [8]) was ≤ 0.008 µg/mL. The MIC50 (E. faecium; [9]) was 0.015 µg/mL (≈ 8.37 nM), the MIC90 (E. faecium; [9]) was 0.06 µg/mL (≈ 33.5 nM) and the MIC50 (E. faecium; [10]) was ≤ 0.0081 µg/mL. For the same compound, the MIC90 (E. faecium; [10]) was ≤ 0.008 µg/mL, the MIC (E. faecium; Enterococcus faecium, read-out: MIC values) was ≤ 0.008 µg/mL and the inhibition at 0.015 µg/mL (E. faecium; Enterococcus faecium, read-out: cumulative % inhibited at MIC, E. faecium (315), at 0.015 mg/L) was 93.3%. For the same compound, the inhibition at 0.03 µg/mL (E. faecium; Enterococcus faecium, read-out: cumulative % inhibited at MIC, E. faecium (315), at 0.03 mg/L) was 97.1%, the inhibition at 0.06 µg/mL (E. faecium; Enterococcus faecium, read-out: cumulative % inhibited at MIC, E. faecium (315), at 0.06 mg/L) was 99.1% and the inhibition at 0.12 µg/mL (E. faecium; Enterococcus faecium, read-out: cumulative % inhibited at MIC, E. faecium (315), at 0.12 mg/L) was 100%. The inhibition at 0.015 µg/mL (E. faecium; Enterococcus faecium, read-out: cumulative % inhibited at MIC, E. faecium, VanA-phenotype (53), at 0.015 mg/L) was 60.4%, the inhibition at 0.03 µg/mL (E. faecium; Enterococcus faecium, read-out: cumulative % inhibited at MIC, E. faecium, VanA-phenotype (53), at 0.03 mg/L) was 83% and the inhibition at 0.06 µg/mL (E. faecium; Enterococcus faecium, read-out: cumulative % inhibited at MIC, E. faecium, VanA-phenotype (53), at 0.06 mg/L) was 94.3%. For the same compound, the inhibition at 0.12 µg/mL (E. faecium; Enterococcus faecium, read-out: cumulative % inhibited at MIC, E. faecium, VanA-phenotype (53), at 0.12 mg/L) was 100%, the inhibition at 0.015 µg/mL (E. faecium; Enterococcus faecium, read-out: cumulative % inhibited at MIC, E. faecium, Vancomycin-susceptible (257), at 0.015 mg/L) was 100% and the “MIC Range” value (E. faecium; Table 2, E. faecium Vancomycin-resistant (VanA-phenotype) (153)) was “≦0.008-0.12 mg/L”. For the same compound, the “MIC Range” value (E. faecium; Table 2, E. faecium Vancomycin-susceptible (257)) was “≦0.008-0.015 mg/L”, the “MIC50 and MIC90 lower than daptomycin and linezolid” value (E. faecium; VanA-phenotype E. faecium) was 32- to 64 fold and the “concentration inhibiting all strains” value (E. faecium; VanA-phenotype E. faecium strains) was ≤ 0.12 mg/L. For the same compound, the “concentration inhibiting all strains” value (E. faecium; all E. faecium, including resistant subsets) was ≤ 0.12 mg/L, the “activity relative to wild-type vancomycin-susceptible population” value (E. faecium; vancomycin-resistant (VanA-type) E. faecium strains) was “at least two-fold less active” and the “concentration inhibiting all strains” value ([2]; all staphylococci, including resistant subsets) was ≤ 0.25 mg/L. For the same compound, the MIC50 [2, 11] was 0.03 µg/mL (≈ 16.7 nM), the MICE [2, 11] was 0.06 mg/L and the “effect of methicillin-resistance phenotype on in vitro activity” value ([2]; staphylococci) was “not affected”.
